Biological target: human BACE1 (Homo sapiens, UniProt P56817)
Assay: BACE1 fluorescent kinetic assay (cleavage of peptide substrate WABC-6)
Assay type: biochemical
Details: 10 nM enzyme, 25 μM substrate WABC-6, pH 4.5, room temperature
Procedure: Evaluation of BACE1 Binding Affinity of Test Compounds
Fluorescent Kinetic Assays
Dilution and mixing steps: total reaction volume: 100 μL
100 μM substrate dilution in 1×PBS was prepared, and
Fluorescence Readings: Readings at λex 320 nm and λem 420 nm are taken every 40 sec for 30 min at room temperature and the linear slope for substrate cleavage rate (vi) determined.

Chain of human BACE1 (P56817 46-501): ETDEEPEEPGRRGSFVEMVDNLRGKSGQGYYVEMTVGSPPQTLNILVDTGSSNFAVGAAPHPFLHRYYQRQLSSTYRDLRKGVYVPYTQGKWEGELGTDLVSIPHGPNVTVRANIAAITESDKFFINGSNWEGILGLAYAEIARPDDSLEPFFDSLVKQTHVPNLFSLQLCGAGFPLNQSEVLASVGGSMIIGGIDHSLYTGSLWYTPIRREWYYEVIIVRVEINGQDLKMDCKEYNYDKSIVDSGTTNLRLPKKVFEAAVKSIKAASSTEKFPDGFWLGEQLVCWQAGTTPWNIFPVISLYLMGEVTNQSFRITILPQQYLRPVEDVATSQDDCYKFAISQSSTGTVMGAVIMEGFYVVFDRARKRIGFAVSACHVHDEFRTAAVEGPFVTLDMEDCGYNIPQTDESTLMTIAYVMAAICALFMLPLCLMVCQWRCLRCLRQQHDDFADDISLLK

Row | Structure (SMILES) | IC50 (Activity Table, Examples 1-108) [nM] | IC50 (Examples 109-141) [nM]
1 | CCOCCC#Cc1cccc(C2(c3ccc(OC(F)F)cc3)N=C(N)N(C)C2=O)c1 (stereo not drawn) [Example 96, 2-Amino-5-[4-(difluoromethoxy)phenyl]-5-[3-(4-ethoxybut-1-yn-1-yl)phenyl]-3-methyl-3,5-dihydro-4H-imidazol-4-one] | < 100 | –
2 | CN1C(=O)[C@](c2ccc(OC(F)F)cc2)(c2ccc(F)c(C#CCF)c2)N=C1N [Example 108, (5S)-2-amino-5-[4-(difluoromethoxy)phenyl]-5-[4-fluoro-3-(3-fluoroprop-1-yn-1-yl)phenyl]-3-methyl-3,5-dihydro-4H-imidazol-4-one] | > 1000 | –
3 | CN1C(=O)C(c2ccc(OC(F)F)cc2)(c2cccc(NC(=O)C=Cc3ccccc3)c2)N=C1N (stereo not drawn) [Example 32] | 110 to 1000 | –
4 | CN1C(=O)C(c2ccc(OC(F)F)cc2)(c2ccc(F)c(N3CCOCC3)c2)N=C1N (stereo not drawn) [Example 86, 2-amino-4-(4-(difluoromethoxy)phenyl)-4-(4-fluoro-3-morpholinophenyl)-1-methyl-1H-imidazol-5(4H)-one] | 110 to 1000 | –
5 | CN1C(=O)C(c2ccc(OC(F)F)cc2)(c2cccc(NC(=O)c3sccc3Br)c2)N=C1N (stereo not drawn) [Example 39] | < 100 | –
6 | CN1C(=O)C(c2ccc(OC(F)F)cc2)(c2cccc(CNCc3ccco3)c2)N=C1N (stereo not drawn) [Example 68, 2-amino-5-[4-(difluoromethoxy)phenyl]-5-(3-{[(2-furylmethyl)-amino]methyl}phenyl)-3-methyl-3,5-dihydro-4H-imidazol-4-one] | 110 to 1000 | –
7 | C=CCCCCc1cccc(C2(c3ccc(OC(F)F)cc3)N=C(N)N(C)C2=O)c1 (stereo not drawn) [Example 121, 2-amino-5-[4-(difluoromethoxy)phenyl]-5-(3-hex-5-en-I-ylphenyl)-3-methyl-3,5dihydro-4H-imidazol-4-one] | – | < 100
8 | CN1C(=O)[C@](c2ccc(OC(F)F)cc2)(c2ccc(F)c(/C=C/CCF)c2)N=C1N [Example 141, (5S)-2-amino-5-[4-(difluoromethoxy)phenyl]-5-{4-fluoro-3-[(1E)-4-fluorobut-1-en-1-yl]phenyl}-3-methyl-3,5-dihydro-4H-imidazol-4-one] | – | < 100
9 | CN1C(=O)[C@](c2ccc(OC(F)F)cc2)(c2ccc(F)c(OCCC(F)F)c2)N=C1N [Example 93, (5S)-2-Amino-5-[4-(difluoromethoxy)phenyl]-5-[3-(3,3-difluoropropoxy)-4-fluorophenyl]-3-methyl-3,5-dihydro-4H-imidazol-4-one] | 110 to 1000 | –
10 | CN1C(=O)C(c2ccc(OC(F)F)cc2)(c2cccc(C3CC3)c2)N=C1N (stereo not drawn) [Example 70, 2-amino-4-(3-cyclopropylphenyl)-4-(4-(difluoromethoxy)phenyl)-1-methyl-1H-imidazol-5(4H)-one] | > 1000 | –
11 | C=CCCOc1cccc([C@@]2(c3ccc(OC(F)F)cc3)N=C(N)N(C)C2=O)c1 [Example 10A, (5R)-2-amino-5-[3-(but-3-en-1-yloxy)phenyl]-5-[4-(difluoromethoxy)phenyl]-3-methyl-3,5-dihydro-4H-imidazol-4-one] | < 100 | –
12 | Cc1cccc(C2(c3ccc(OC(F)F)cc3)N=C(N)N(C)C2=O)c1 (stereo not drawn) [Example 74, 2-Amino-5-[4-(difluoromethoxy)phenyl]-3-methyl-5-(3-methylphenyl)-3,5-dihydro-4H-imidazol-4-one] | 110 to 1000 | –
13 | C=CCCOc1cc(C2(c3ccc(OC(F)F)cc3)N=C(N)N(C)C2=O)ccc1F (stereo not drawn) [Example 9, 2-amino-5-[3-(but-3-en-1-yloxy)-4-fluorophenyl]-5-[4-(difluoromethoxy)phenyl]-3-methyl-3,5-dihydro-4H-imidazol-4-one] | < 100 | –
14 | CCCCC(=O)Nc1cccc(C2(c3ccc(OC(F)F)cc3)N=C(N)N(C)C2=O)c1 (stereo not drawn) [Example 23] | 110 to 1000 | –
15 | COCCCC/C=C/c1cccc([C@@]2(c3ccc(OC(F)F)cc3)N=C(N)N(C)C2=O)c1 [Example 129, (R,E)-2-amino-4-(4-(difluoromethoxy)phenyl)-4-(3-(6-methoxyhex-1-enyl)phenyl)-1-methyl-1H-imidazol-5(4H)-one] | – | < 100
16 | CC(C)C(=O)Nc1cccc(C2(c3ccc(OC(F)F)cc3)N=C(N)N(C)C2=O)c1 (stereo not drawn) [Example 27] | 110 to 1000 | –
17 | CN1C(=O)[C@@](c2ccc(OC(F)F)cc2)(c2ccc(F)c(OCCC(F)F)c2)N=C1N [Example 94, (5R)-2-Amino-5-[4-(difluoromethoxy)phenyl]-5-[3-(3,3-difluoropropoxy)-4-fluorophenyl]-3-methyl-3,5-dihydro-4H-imidazol-4-one] | < 100 | –
18 | CC(C)Oc1cc(C2(c3ccc(OC(F)F)cc3)N=C(N)N(C)C2=O)ccc1F (stereo not drawn) [Example 136, 2-amino-5-[4-(difluoromethoxy)phenyl]-5-(4-fluoro-3-isopropoxyphenyl)-3-methyl-3,5-dihydro-4H-imidazol-4-one] | – | 110 to 1000
19 | CC(C)CC(=O)Nc1cccc(C2(c3ccc(OC(F)F)cc3)N=C(N)N(C)C2=O)c1 (stereo not drawn) [Example 26] | < 100 | –
20 | CN1C(=O)C(c2ccc(OC(F)F)cc2)(c2cccc(NC(=O)C(Cl)(Cl)Cl)c2)N=C1N (stereo not drawn) [Example 36] | < 100 | –
21 | CN1C(=O)[C@](c2ccc(OC(F)F)cc2)(c2cccc(C#CCCCF)c2)N=C1N [Example 19F, (5S)-2-amino-5-[4-(difluoromethoxy)phenyl]-5-[3-(5-fluoropent-1-yn-1-yl)phenyl]-3-methyl-3,5-dihydro-4H-imidazol-4-one] | > 1000 | –
22 | CN1C(=O)C(c2ccc(OC(F)F)cc2)(c2cccc(NC(=O)CCCl)c2)N=C1N (stereo not drawn) [Example 24] | 110 to 1000 | –
23 | CN1C(=O)C(c2ccc(OC(F)F)cc2)(c2cccc(NC3CCC3)c2)N=C1N (stereo not drawn) [Example 50] | 110 to 1000 | –
24 | CN1C(=O)C(c2ccc(OC(F)F)cc2)(c2cccc(C#CCCCF)c2)N=C1N (stereo not drawn) [Example 19D, 2-amino-5-[4-(difluoromethoxy)phenyl]-5-[3-(5-fluoropent-1-yn-1-yl)phenyl]-3-methyl-3,5-dihydro-4H-imidazol-4-one] | < 100 | –
25 | C=CC[C@H](C)c1cccc(C2(c3ccc(OC(F)F)cc3)N=C(N)N(C)C2=O)c1 (stereo partly drawn) [Example 110, 2-amino-5-[4-(difluoromethoxy)phenyl]-3-methyl-5-{3-[(1S)-1-methylbut-3-en-1-yl]phenyl}-3,5-dihydro-4H-imidazol-4-one] | – | 110 to 1000
26 | C=CC[C@H](C)Oc1cccc([C@@]2(c3ccc(OC(F)F)cc3)N=C(N)N(C)C2=O)c1 [Example 10E, (R)-2-amino-4-(4-(difluoromethoxy)phenyl)-1-methyl-4-(3-((S)-pent-4-en-2-yloxy)phenyl)-1H-imidazol-5(4H)-one] | 110 to 1000 | –
27 | CN1C(=O)C(c2ccc(OC(F)F)cc2)(c2cccc(CN3CCCC3)c2)N=C1N (stereo not drawn) [Example 66, 2-amino-5-[4-(difluoromethoxy)phenyl]-3-methyl-5-[3-(pyrrolidin-1-ylmethyl)phenyl]-3,5-dihydro-4H-imidazol-4-one] | > 1000 | –
28 | CN1C(=O)C(c2ccc(OC(F)F)cc2)(c2cccc(Cc3ccco3)c2)N=C1N (stereo not drawn) [Example 88, 2-amino-4-(4-(difluoromethoxy)phenyl)-4-(3-(furan-2-ylmethyl)phenyl)-1-methyl-1H-imidazol-5(4H)-one] | 110 to 1000 | –
29 | C=CCCOc1cccc(C2(c3ccc(OC(F)F)cc3)N=C(N)N(C)C2=O)c1 (stereo not drawn) [Example 8, 2-amino-5-[3-(but-3-en-1-yloxy)phenyl]-5-[4-(difluoromethoxy)-phenyl]-3-methyl-3,5-dihydro-4H-imidazol-4-one] | < 100 | –
30 | CN1C(=O)C(c2ccc(OC(F)F)cc2)(c2cccc(NCc3ccco3)c2)N=C1N (stereo not drawn) [Example 51] | < 100 | –
